What was measured:
IκB-kinase = biological target: T1, IκB-kinase (Homo sapiens, UniProt O14920+O15111); assay: IκB-Kinase ELISA; assay type: biochemical; conditions: kinase complex from HeLa S3 cell extract, activated with MEKK1Δ
T1 construct: endogenous in cells; host or cells: HeLa S3 cell extract S100; ammonium sulfate cut and Superose-6 gel filtration (670 kDa fractions)

[1] = test system: Kaolin/carrageenan-induced knee joint inflammation; assay: Kaolin/carrageenan-induced knee joint inflammation in the rat: reaction of spinal neurons during pressure stimulation of the knee; assay type: in vivo
From the text: • Zymosan-induced paw inflammation in the rat; • Parameter: paw withdrawal time or paw withdrawal threshold during thermal or mechanical stimulation of the hind paw. 2nd Model: • Kaolin/carrageenan-induced knee joint inflammation in the rat; • Parameter: reaction of spinal neurons during pressure stimulation of the knee. Model 1
Experimental implementation: In rats which were under sodium thiopental anesthesia, the spinal canal was opened and spinal medullary neurons which processed the “pain impulses” from the knee-joint were identified. Following identification, a long-term recording, in which the activity of the nerve cell was recorded before and during the development of an acute inflammation in the knee-joint, was carried out. For this, the responses to non-noxious and noxious stimulation at the knee-joint were measured in a control period before inducing the inflammation and for several hours after inducing the inflammation.
The acute inflammation was induced by the intraarticular injection of a suspension (about 150 μl) of kaolin and carrageenan. In controlled experiments, only the vehicle was applied to the spinal medullary surface in order to represent the development of the hyperexcitability under control conditions. As a rule, this development of hyperexcitability took place within 2 to 4 hours and was expressed in a marked increase in the responses to non-noxious and noxious stimulation of the knee-joint (Tab. 3). […] The responses of the cell to non-noxious and noxious stimulation were then subsequently monitored as in the control experiments.

[2] = test system: Zymosan-induced paw inflammation; assay: Zymosan-induced paw inflammation in the mouse: paw withdrawal time during thermal stimulation of the hind paw; assay type: in vivo; conditions: thermal hyperalgesia AUC, seven days; 200 mg/kg twice daily
Experimental: • Zymosan-induced paw inflammation in the mouse; • Parameter: paw withdrawal time during thermal stimulation of the hind paw. Experimental implementation: In short-term anesthesia using isoflurane, 25 μl of a suspension containing 50 mg of zymosan/ml were injected into the right hind paw of the experimental animal. The development of a hyperalgesia was then determined quantitatively as follows: Determining the Paw Withdrawal Time During Thermal Stimulation (Hargreave's Test; See Above). The experimental animal was placed in a transparent plastic chamber having a glass floor. As soon as the experimental animal was no longer moving, following the reconnaissance phase (about 5 min), an infrared light source was positioned directly below the hind paw to be stimulated and switched on. The lamp emitted focused infrared light of increasing intensity such that the skin temperature of the hind paw increased almost linearly. As soon as the animal withdrew the paw, the lamp switched itself off. The temperature of the paw at the time it is withdrawn has just become unpleasant for the animal; this is referred to as the thermal pain threshold. Shortly before the zymosan injection, and for from 7 to 14 days after the injection, the thermal pain threshold was determined once daily on the right hind paw and left hind paw. Subsequently, the integral of the area which was formed from the curves for the paw withdrawal times of the inflamed paw and the noninflamed paw (AUC, area between the curves, see tables 5 and 6) was determined as a measure of the hyperalgesia. The larger this value is, the more pronounced is the hyperalgesia, and the smaller the value is in animals which are being given the substance, the greater is the success of the therapy. […] A very high dose of paracetamol was likewise administered twice daily to another group of animals which was taken through the experiment in parallel. […] The scheme for zymosan injection and dosing was identical to that in the previously described study. The only difference was that this additional study ran for 14 days.

[3] = test system: Zymosan-induced paw inflammation; assay: Zymosan-induced paw inflammation in the mouse: spontaneous running performance in a running wheel; assay type: in vivo, C57/B6 mice
Experimental: 4th Model: • Zymosan-induced paw inflammation in the mouse; • Parameter: spontaneous running performance in a running wheel. In the cage in which it is kept, the experimental animal has access to a running wheel, the revolutions of which are recorded electronically. During the night hours, the C57/B6 mice use the running wheel voluntarily and, after a one-week phase of acclimatization, cover on average 4 100 meters/night. After zymosan has been injected, the distance run each night is reduced. This reduction in running performance is a valid parameter for a restriction in function which is due to inflammation pain. Experimental implementation: After an acclimatization phase of one week, the distance run/24 hours was measured in order to determine the base line. 25 μl of a suspension containing 50 mg of zymosan/ml were then injected into the right hind paw of the experimental animal during short-term anesthesia using isoflurane. The distance run/24 hours was then determined during the following seven days. In the analysis, the area under the curve for the values for the distance run was determined (AUC, tab. 7): the lower the AUC, the lower was the running performance during the week following injection of the zymosan. […] The substance was administered for the first time on day 1 after injection of the zymosan.

T1 sequence (O14920 whole entry): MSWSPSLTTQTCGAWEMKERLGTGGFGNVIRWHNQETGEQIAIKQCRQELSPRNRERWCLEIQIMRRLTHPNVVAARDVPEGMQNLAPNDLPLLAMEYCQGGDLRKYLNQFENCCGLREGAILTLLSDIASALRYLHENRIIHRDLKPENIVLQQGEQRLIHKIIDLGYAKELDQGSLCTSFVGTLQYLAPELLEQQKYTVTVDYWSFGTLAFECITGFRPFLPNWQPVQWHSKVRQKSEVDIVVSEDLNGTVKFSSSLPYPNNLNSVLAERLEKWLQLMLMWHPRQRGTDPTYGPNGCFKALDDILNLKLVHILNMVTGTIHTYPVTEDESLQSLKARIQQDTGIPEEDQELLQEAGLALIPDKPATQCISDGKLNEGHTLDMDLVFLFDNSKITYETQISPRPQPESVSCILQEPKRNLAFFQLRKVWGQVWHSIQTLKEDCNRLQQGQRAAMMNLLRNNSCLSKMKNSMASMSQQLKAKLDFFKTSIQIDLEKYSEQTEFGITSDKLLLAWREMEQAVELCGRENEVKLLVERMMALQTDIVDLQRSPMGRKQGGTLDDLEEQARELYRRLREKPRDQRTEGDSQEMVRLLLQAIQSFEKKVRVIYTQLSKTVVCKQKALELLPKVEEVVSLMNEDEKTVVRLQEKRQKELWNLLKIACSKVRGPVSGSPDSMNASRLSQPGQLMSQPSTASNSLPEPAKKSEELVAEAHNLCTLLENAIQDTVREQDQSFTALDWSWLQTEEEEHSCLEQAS
T1 sequence (O15111 whole entry): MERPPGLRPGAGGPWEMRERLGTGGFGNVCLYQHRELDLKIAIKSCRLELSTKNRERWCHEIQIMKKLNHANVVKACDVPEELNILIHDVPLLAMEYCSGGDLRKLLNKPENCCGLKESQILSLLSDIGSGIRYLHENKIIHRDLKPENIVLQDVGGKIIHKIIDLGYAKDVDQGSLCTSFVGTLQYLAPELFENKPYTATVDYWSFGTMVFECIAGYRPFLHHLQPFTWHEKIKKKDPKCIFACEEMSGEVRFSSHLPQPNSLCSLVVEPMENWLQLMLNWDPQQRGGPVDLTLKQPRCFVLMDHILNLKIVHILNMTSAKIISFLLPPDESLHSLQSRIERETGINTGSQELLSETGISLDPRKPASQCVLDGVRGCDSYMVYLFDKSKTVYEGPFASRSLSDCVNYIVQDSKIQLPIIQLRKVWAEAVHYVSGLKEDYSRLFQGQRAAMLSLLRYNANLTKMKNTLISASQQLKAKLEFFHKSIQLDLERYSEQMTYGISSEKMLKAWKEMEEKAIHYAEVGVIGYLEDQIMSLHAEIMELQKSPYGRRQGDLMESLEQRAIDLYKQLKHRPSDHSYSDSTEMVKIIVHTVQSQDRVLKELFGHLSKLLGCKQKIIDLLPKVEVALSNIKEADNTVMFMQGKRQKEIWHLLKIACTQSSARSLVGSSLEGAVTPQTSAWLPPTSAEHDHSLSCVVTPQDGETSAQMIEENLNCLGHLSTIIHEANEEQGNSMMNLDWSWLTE
T1 sequence (Q9Y6K9 whole entry partner): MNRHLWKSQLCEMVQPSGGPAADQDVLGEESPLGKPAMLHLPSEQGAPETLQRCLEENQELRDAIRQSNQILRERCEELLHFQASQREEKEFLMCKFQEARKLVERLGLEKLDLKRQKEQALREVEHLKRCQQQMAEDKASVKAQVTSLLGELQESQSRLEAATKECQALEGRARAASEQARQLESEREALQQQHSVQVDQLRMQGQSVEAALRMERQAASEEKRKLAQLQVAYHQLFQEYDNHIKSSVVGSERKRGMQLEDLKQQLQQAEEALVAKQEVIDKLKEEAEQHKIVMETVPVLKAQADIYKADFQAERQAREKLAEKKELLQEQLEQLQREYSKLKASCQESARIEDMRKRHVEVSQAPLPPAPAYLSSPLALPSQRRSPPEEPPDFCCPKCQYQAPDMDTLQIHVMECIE

`CNc1nccc(-c2nc3cc(C(=O)N[C@@H](CN(c4ccccc4)c4ccccc4)C(N)=O)ccc3[nH]2)n1` [Compound 22, N—((S)-1-carbamoyl-2-diphenylaminoethyl)-2-(2-methylaminopyrimidin-4-yl)-1H-benzimidazole-5-carboxamide] was tested, and the IC50 (IκB-kinase) was 45 nM, the “Neuronal responses before and during knee-joint inflammation (imp/15 s)” value ([1]; Experiment 1, Non-noxious stimulation at the knee-joint, 30-60 min after K/C injection) was −34.1 imp/15 s and the “Neuronal responses before and during knee-joint inflammation (imp/15 s)” value ([1]; Experiment 1, Non-noxious stimulation at the knee-joint, 60-120 min after K/C injection) was −37.2 imp/15 s. The “Neuronal responses before and during knee-joint inflammation (imp/15 s)” value ([1]; Experiment 1, Non-noxious stimulation at the knee-joint, 120-180 min after K/C injection) was −32.1 imp/15 s, the “Neuronal responses before and during knee-joint inflammation (imp/15 s)” value ([1]; Experiment 1, Non-noxious stimulation at the knee-joint, Baseline) was 0 imp/15 s and the “Neuronal responses before and during knee-joint inflammation (imp/15 s)” value ([1]; Experiment 1, Noxious stimulation at the knee-joint, 30-60 min after K/C injection) was −109.1 imp/15 s. The “Neuronal responses before and during knee-joint inflammation (imp/15 s)” value ([1]; Experiment 1, Noxious stimulation at the knee-joint, 60-120 min after K/C injection) was −101.1 imp/15 s, the “Neuronal responses before and during knee-joint inflammation (imp/15 s)” value ([1]; Experiment 1, Noxious stimulation at the knee-joint, 120-180 min after K/C injection) was −37.8 imp/15 s and the “Neuronal responses before and during knee-joint inflammation (imp/15 s)” value ([1]; Experiment 1, Noxious stimulation at the knee-joint, Baseline) was 0 imp/15 s. For the same compound, the “Neuronal responses before and during knee-joint inflammation (imp/15 s)” value ([1]; Experiment 2, Non-noxious stimulation at the knee-joint, 30-60 min after K/C injection) was −30.6 imp/15 s, the “Neuronal responses before and during knee-joint inflammation (imp/15 s)” value ([1]; Experiment 2, Non-noxious stimulation at the knee-joint, 120-180 min after K/C injection) was 50.3 imp/15 s and the “Neuronal responses before and during knee-joint inflammation (imp/15 s)” value ([1]; Experiment 2, Non-noxious stimulation at the knee-joint, 180-240 min after K/C injection) was 68.7 imp/15 s. For the same compound, the “Neuronal responses before and during knee-joint inflammation (imp/15 s)” value ([1]; Experiment 2, Non-noxious stimulation at the knee-joint, Baseline) was 0 imp/15 s, the “Neuronal responses before and during knee-joint inflammation (imp/15 s)” value ([1]; Experiment 2, Noxious stimulation at the knee-joint, 30-60 min after K/C injection) was −9.2 imp/15 s and the “Neuronal responses before and during knee-joint inflammation (imp/15 s)” value ([1]; Experiment 2, Noxious stimulation at the knee-joint, 120-180 min after K/C injection) was 60 imp/15 s. The “Neuronal responses before and during knee-joint inflammation (imp/15 s)” value ([1]; Experiment 2, Noxious stimulation at the knee-joint, 180-240 min after K/C injection) was 96.7 imp/15 s, the “Neuronal responses before and during knee-joint inflammation (imp/15 s)” value ([1]; Experiment 2, Noxious stimulation at the knee-joint, Baseline) was 0 imp/15 s and the “effect in model 2” value ([1]; rat) was “good effect”.

For `CC(=O)Nc1ccc(O)cc1` [Paracetamol, reference compound], the “Statistical difference as compared with the vehicle” value [2] was “yes”, the “distance run as compared with the vehicle group” value ([3]; mouse, 7 days, extremely high dose) was “no improvement” and the “Statistical difference as compared with the vehicle” value ([3]; running wheel AUC, seven days, 200 mg/kg twice daily) was “no”.

From US8809358B2, “Use of IκB-kinase inhibitors in pain therapy” (Sanofi-Aventis Deutschland GmbH, priority 2002, dated 2014)
